Data published in patent publication US6436627B1, “Gene encoding an invertebrate α1 calcium channel subunit” (The Research Foundation of State University of New York, priority 1995, dated 2002).

Experiments:
Format in all cases: cell-based
[1] = molecular target: T1, Drosophila Dmca1D calcium channel (L23RDD2 α1 + α2−δ + β) (Drosophila melanogaster, UniProt Q24270, A1391P/C1440T/D1375E/D1388K/D1403I/D1421E/D1422S/D1433P/DEL1408-1416/DEL1426-1431/E1379S/E1381Q/E1419P/E1434Y/E1435P/E1441G/G1404N/H1387E/H1396E/I1402K/INS1389RKKLARTA/INS1394[…]/L1420N/M1439T/P1386E/P1400T/Q1392E/Q1417L/R1437P/S1378T/S1395G/T1399P/V1380A/V1436N); assay: Calcium channel currents in Xenopus oocytes expressing Drosophila L23RDD2 α1 with α2-δ and β subunits; conditions: 2 μM BayK8644, Solution 2, BAPTA preinjection
T1 construct: rabbit cardiac α1C subunit amino acids 790-874 (85 aa insert replacing the fly II-III loop segment); expressed in transfected cells; host or cells: Xenopus oocytes injected with cRNA
T1 sequence (P13806 27-960, stated change not applied): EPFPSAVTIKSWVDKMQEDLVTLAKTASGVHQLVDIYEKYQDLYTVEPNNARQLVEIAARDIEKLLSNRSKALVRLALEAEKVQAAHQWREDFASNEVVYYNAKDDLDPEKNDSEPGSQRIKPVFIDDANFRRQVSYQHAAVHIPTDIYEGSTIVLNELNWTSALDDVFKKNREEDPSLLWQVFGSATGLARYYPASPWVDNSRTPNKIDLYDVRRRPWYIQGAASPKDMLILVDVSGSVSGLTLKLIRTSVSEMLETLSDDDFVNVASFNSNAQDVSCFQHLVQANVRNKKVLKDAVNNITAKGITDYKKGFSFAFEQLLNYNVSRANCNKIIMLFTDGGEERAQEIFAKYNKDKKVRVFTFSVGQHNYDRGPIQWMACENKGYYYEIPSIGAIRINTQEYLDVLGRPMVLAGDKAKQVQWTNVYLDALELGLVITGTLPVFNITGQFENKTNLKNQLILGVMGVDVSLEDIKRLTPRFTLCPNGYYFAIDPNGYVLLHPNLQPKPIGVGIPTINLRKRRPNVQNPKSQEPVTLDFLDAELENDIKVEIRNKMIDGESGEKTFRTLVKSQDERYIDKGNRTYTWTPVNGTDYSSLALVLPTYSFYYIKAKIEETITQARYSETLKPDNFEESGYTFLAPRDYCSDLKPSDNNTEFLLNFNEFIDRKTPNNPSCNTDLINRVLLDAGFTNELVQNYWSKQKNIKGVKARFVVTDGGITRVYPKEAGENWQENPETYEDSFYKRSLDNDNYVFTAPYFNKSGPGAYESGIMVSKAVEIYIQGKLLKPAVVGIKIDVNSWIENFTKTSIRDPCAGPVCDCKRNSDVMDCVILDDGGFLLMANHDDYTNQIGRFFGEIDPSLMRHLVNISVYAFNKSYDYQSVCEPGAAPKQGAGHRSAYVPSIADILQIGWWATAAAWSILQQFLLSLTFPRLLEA
T1 sequence (P13806 961-1106, stated change not applied): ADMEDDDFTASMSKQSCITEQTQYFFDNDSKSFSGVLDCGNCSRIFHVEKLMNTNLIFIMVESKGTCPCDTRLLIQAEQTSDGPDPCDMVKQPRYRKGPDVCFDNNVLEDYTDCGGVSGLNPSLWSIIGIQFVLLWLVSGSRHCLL
T1 sequence (Q24270 other isoform, or with tags, fused parts or gaps with the stated changes): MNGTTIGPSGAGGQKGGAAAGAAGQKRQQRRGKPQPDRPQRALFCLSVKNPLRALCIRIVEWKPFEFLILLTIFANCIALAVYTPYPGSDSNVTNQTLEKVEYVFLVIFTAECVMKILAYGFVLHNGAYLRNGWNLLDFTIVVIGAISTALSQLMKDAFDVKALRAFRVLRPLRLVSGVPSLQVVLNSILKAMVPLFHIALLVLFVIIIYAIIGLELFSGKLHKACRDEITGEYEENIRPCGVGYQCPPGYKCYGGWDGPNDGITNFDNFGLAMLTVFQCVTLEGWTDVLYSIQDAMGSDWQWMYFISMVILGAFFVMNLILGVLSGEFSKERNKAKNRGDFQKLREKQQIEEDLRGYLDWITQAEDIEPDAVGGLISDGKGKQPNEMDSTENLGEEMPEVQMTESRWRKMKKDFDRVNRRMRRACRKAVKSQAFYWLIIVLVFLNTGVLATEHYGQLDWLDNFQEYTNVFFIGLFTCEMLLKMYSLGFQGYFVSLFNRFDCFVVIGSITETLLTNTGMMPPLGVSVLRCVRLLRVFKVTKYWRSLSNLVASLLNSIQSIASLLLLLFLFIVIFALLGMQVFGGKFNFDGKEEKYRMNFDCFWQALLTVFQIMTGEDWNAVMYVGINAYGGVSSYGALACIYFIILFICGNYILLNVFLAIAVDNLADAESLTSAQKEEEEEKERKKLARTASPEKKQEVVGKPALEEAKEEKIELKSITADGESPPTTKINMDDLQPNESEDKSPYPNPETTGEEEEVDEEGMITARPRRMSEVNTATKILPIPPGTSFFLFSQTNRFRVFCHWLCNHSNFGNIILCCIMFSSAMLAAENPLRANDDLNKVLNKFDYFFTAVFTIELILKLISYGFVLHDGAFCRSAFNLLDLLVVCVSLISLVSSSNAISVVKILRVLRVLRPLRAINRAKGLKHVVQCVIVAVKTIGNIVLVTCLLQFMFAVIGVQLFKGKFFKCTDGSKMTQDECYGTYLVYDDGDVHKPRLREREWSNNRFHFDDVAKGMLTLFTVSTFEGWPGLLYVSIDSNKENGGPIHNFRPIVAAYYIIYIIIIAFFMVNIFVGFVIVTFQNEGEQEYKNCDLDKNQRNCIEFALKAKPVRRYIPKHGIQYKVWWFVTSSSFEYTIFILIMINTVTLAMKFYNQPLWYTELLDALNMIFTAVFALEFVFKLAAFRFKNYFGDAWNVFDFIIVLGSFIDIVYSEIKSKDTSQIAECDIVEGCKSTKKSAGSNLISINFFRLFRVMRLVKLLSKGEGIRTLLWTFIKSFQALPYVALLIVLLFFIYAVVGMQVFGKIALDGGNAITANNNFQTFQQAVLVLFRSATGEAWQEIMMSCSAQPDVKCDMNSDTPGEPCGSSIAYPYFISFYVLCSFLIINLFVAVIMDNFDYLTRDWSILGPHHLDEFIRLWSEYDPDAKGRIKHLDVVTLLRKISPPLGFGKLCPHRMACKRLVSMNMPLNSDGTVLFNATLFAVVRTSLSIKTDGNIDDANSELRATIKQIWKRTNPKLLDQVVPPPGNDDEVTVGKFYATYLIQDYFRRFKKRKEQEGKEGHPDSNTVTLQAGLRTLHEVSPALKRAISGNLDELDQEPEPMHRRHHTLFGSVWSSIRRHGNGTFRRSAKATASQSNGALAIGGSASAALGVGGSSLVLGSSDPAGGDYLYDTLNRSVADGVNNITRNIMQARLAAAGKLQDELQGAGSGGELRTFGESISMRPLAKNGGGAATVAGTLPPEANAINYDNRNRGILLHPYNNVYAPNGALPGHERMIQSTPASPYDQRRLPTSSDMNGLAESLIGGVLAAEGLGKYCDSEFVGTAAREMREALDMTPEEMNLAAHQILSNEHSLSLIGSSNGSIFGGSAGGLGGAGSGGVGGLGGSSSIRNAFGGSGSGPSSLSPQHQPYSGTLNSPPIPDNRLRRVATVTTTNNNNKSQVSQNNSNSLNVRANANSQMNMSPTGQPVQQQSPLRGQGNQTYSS
From the text: (§1) Construct L23RDD2 in the pAGA2 vector (Wei et al. (1991) J. Biol. Chem. 266:21943-21947) encodes the Drosophila DmcalD calcium channel α1 subunit. The coding sequence begins with the fifth methionine in the published sequence (Zheng et al. (1995) J. Neurosci. 15:1132-1143). A part of the II-III cytoplasmic loop (amino acids […] in Zheng et al. (1995) J. Neurosci. 15:1132-1143) has been replaced with 85 amino acids from the rabbit cardiac α1C subunit (amino acids 790-874, Wei et al. 1991, supra ). The α2−δ subunit used in these studies is MXTα2−δ. This is an EcoRI fragment from the rabbit skeletal muscle α2−δ subunit described by Mikami et al. ((1989) Nature340:230-233) subcloned into the Xenopus oocyte expression vector pBScMXT (from L. Salkoff, Washington, St Louis). The Drosophila beta subunit clone used was β-DN2CI in oocyte expression vector pAGA2. This beta subunit isoform contains both conserved domains and the N2 form of form of the amino terminus. The rabbit cardiac α1C subunit clone (Wei et al. 1991, supra) (in the pAGA2 vector) was CardΔN60 in which the first 60 amino acids on the N terminus were deleted to enhance expression.
(§2) Injection mixtures were prepared in 1 mM Tris pH7.0 and 50 nl was injected into each oocyte. For studies of the Drosophila L23RDD2 channel αl subunit the concentrations of the “undiluted” cocktail in ng/ul were: 300 αl, 150 α2−δ, 83 β. For studies of the rabbit cardiac αl subunit the concentrations of the “undiluted” cocktail in ng/μl were: 12 α1, 6.6 α2−δ, 3.6 β. Oocytes were incubated at 18° C. in ND96 plus supplements (Goldin (1992) Methods Enz. 207:266-279) (changed daily) until recording.
(§3) Two different recording solutions were used. Solution 1 consisted of (in mM): 40 Ba(OH)2, 50 NaOH, 2 KOH, 1 niflumic acid, 0.1 EGTA, 5 HEPES, adjusted to pH 7.4 with methanesulfonic acid (Pragnell et al. (1994) Nature 368:67-70). Solution 2 was used for some experiments and consisted of (in mM): 40 Ba(OH)2, 52 TEA, 5 HEPES, adjusted to pH 7.4 with methanesulfonic acid (Yang et al. (1993) Nature 366:158-161). […]
(§4) FIG. 20 summarizes a dose response curve for the dihydropyridine antagonist nifedipine using oocytes expressing CRNA (in ng/ul): 150 L23RDD2 α1, 75 α2−δ, and 41.5 β. Each point represents 3 to 9 oocytes recorded in Solution 1. […] This compares well with the nifedipine sensitivity determined for this calcium channel in Drosophila larval muscle where 10 μM nifedipine blocks 80% of the current associated with the Dmca1D current (Gielow et al. (1995) J. Neurosci. 15:6085-6093). […] Thus, the Xenopus oocyte expression system is ready for use in testing compounds active against this calcium channel in insects. […]

[2] = molecular target: T2, rabbit cardiac calcium channel (α1CΔN60 + α2−δ + β) (Oryctolagus cuniculus, UniProt P15381); assay: Calcium channel currents in Xenopus oocytes expressing the rabbit cardiac α1C subunit with α2-δ and β subunits; conditions: 2 μM BayK8644, Solution 2, BAPTA preinjection
T2 construct: expressed in transfected cells; host or cells: Xenopus oocytes injected with cRNA
From the text: We completed an analysis of 14 different chimeras to identify the region which was preventing expression of the Drosophila Dmca1D calcium channel currents in Xenopus oocytes. As a result of that analysis we defined a short region of 67 amino acids in the cytoplasmic loop between repeats II and III that was causing the difficulty (see FIG. 11). When an 85 amino acid segment from the rabbit cardiac α1 C subunit was substituted in place of this 67 amino acid Drosophila sequence, we were able to reproducibly generate small calcium channel currents using barium as the charge carrier. In this Example, and in the experiments described in the Examples below, we used a combination of subunit cRNAs. […] When control experiments were run using rabbit cardiac calcium channels, the same auxiliary subunits were used and the rabbit αlCΔN60 subunit was used in place of the Drosophila L23RDD2 α1 chimera.
Construct L23RDD2 in the pAGA2 vector (Wei et al. (1991) J. Biol. Chem. 266:21943-21947) encodes the Drosophila DmcalD calcium channel α1 subunit. The coding sequence begins with the fifth methionine in the published sequence (Zheng et al. (1995) J. Neurosci. 15:1132-1143). A part of the II-III cytoplasmic loop (amino acids 1222-1228 in Zheng et al. (1995) J. Neurosci. 15:1132-1143) has been replaced with 85 amino acids from the rabbit cardiac α1C subunit (amino acids 790-874, Wei et al. 1991, supra ). […]

[3] = molecular target: T3, Drosophila Dmca1D calcium channel (L23RDD2 α1 + α2−δ + β) (Drosophila melanogaster, UniProt Q24270, A1391P/C1440T/D1375E/D1388K/D1403I/D1421E/D1422S/D1433P/DEL1408-1416/DEL1426-1431/E1379S/E1381Q/E1419P/E1434Y/E1435P/E1441G/G1404N/H1387E/H1396E/I1402K/INS1389RKKLARTA/INS1394QEVVGKPALEEAKEEKIELKSITAD/L1420N/M1439T/P1386E/P1400T/Q1392E/Q1417L/R1437P/S1378T/S1395G/T1399P/V1380A/V1436N); assay: Calcium channel currents in Xenopus oocytes expressing Drosophila L23RDD2 α1 with α2-δ and β subunits
T3 construct: rabbit cardiac α1C subunit amino acids 790-874 (85 aa insert replacing the fly II-III loop segment); expressed in transfected cells; host or cells: Xenopus oocytes injected with cRNA
T3 sequence (P13806 27-960, stated change not applied): as the sequence (P13806 27-960, stated change not applied) above
T3 sequence (P13806 961-1106, stated change not applied): as the sequence (P13806 961-1106, stated change not applied) above
T3 sequence (Q24270 other isoform, or with tags, fused parts or gaps with the stated changes): as the sequence (Q24270 other isoform, or with tags, fused parts or gaps with the stated changes) above
From the text: as §1, §2, §3, §4

| SMILES | Effect of BayK on the channel current (in words) [1] | Effect on tail current kinetics in the presence of BayK (in words) [1] | Peak current in the presence of BayK ([1]; same oocyte without BayK 1548.5 nA) | Effect of BayK on the channel current (in words) [2] | Peak current in the presence of BayK ([2]; same oocyte without BayK 488.2 nA) | EC50 [3] |
| --- | --- | --- | --- | --- | --- | --- |
| COC(=O)C1=C(C)NC(C)=C([N+](=O)[O-])C1c1ccccc1C(F)(F)F (stereo not drawn) [BayK8644] | no stimulation | no obvious change in kinetics | 1208.1 nA | increase in the peak current and slowing of the tail currents | 1673.7 nA | – |
| COC(=O)C1=C(C)NC(C)=C(C(=O)OC)C1c1ccccc1[N+](=O)[O-] [nifedipine] | – | – | – | – | – | ~3 µM |
